{"source": "patent US6511997B1", "about": "“Aminopyrazole derivatives” (Teikoku Hormone Mfg. Co., Ltd., priority 1998, dated 2003)", "data": [{"units": {"melting point": "°C"}, "values": [{"smiles": "Cn1nc(-c2ccc(F)cc2)c(-c2ccncc2)c1NC(=O)Cc1ccc(Br)cc1", "note": "[Example 59, 5-(4-Bromophenylacetylamino)-3-(4-fluorophenyl)-1-methyl-4-(4-pyridyl)pyrazole]", "melting point": "199.8 to 202.1"}, {"smiles": "Cc1ccc(S(=O)(=O)Nc2n[nH]c(-c3ccc(F)cc3)c2-c2ccncc2)cc1", "note": "[Example 140, 5-(4-Fluorophenyl)-4-(4-pyridyl)-3-(p-toluenesulfonylamino)pyrazole]", "melting point": "221.2 to 221.5"}, {"smiles": "COc1ccc(CC(=O)Nc2c(-c3ccncc3)c(-c3ccc(F)cc3)nn2C)cc1OC", "note": "[Example 42, 5-(3,4-Dimethoxyphenylacetylamino)-3-(4-fluorophenyl)-1-methyl-4-(4-pyridyl)pyrazole]", "melting point": "128.1 to 129.6"}, {"smiles": "O=C(Nc1n[nH]c(-c2ccc(F)cc2)c1-c1ccncc1)C(F)(F)F", "note": "[Example 22, 5-(4-fluorophenyl)-4-(4-pyridyl)-3-trifluoroacetylaminopyrazole]", "melting point": "260.1 to 265.2"}, {"smiles": "Cn1nc(-c2ccc(F)cc2)c(-c2ccncc2)c1NC(=O)Cc1ccccc1Cl", "note": "[Example 56, 5-(2-Chlorophenylacetylamino)-3-(4-fluorophenyl)-1-methyl-4-(4-pyridyl)pyrazole]", "melting point": "215.9 to 217.8"}, {"smiles": "O=C(Cc1ccccc1)Nc1c(-c2ccncc2)c(-c2ccc(F)cc2)nn1CCO", "note": "[Example 105, 3-(4-Fluorophenyl)-1-(2-hydroxyethyl)-5-phenylacetylamino-4-(4-pyridyl)pyrazole]", "melting point": "180.3 to 183.6"}, {"smiles": "COc1ccc(CC(=O)Nc2c(-c3ccncc3)c(-c3ccc(F)cc3)nn2C)c(OC)c1", "note": "[Example 52, 5-(2,4-Dimethoxyphenylacetylamino)-3-(4-fluorophenyl)-1-methyl-4-(4-pyridyl)pyrazole]", "melting point": "179.3 to 182.2"}, {"smiles": "Cn1nc(-c2ccc(Cl)c(Cl)c2)c(-c2ccncc2)c1NC(=O)Cc1ccccc1", "note": "[Example 111, 3-(3,4-Dichlorophenyl)-1-methyl-5-phenylacetylamino-4-(4-pyridyl)pyrazole]", "melting point": "198.4 to 199.1"}, {"smiles": "CCC(=O)Nc1n[nH]c(-c2ccc(F)cc2)c1-c1ccncc1", "note": "[Example 17, 5-(4-Fluorophenyl)-3-propionylamino-4-(4-pyridyl)pyrazole]", "melting point": "272 to 275"}, {"smiles": "CCCCC(=O)Nc1n[nH]c(-c2ccc(F)cc2)c1-c1ccncc1", "note": "[Example 20, 5-(4-Fluorophenyl)-4-(4-pyridyl)-3-valerylaminopyrazole]", "melting point": "273.7 to 275.8"}, {"smiles": "Nc1ccccc1CC(=O)Nc1n[nH]c(-c2ccc(F)cc2)c1-c1ccncc1", "note": "[Example 93, 5-(4-fluorophenyl)-3-(2-aminophenylacetylamino)-4-(4-pyridyl)pyrazole]", "melting point": "196.3 to 197.1"}, {"smiles": "O=C(Cc1ccc(C(F)(F)F)cc1)Nc1n[nH]c(-c2ccc(F)cc2)c1-c1ccncc1", "note": "[Example 8, 5-(4-Fluorophenyl)-4-(4-pyridyl)-3-(4-trifluoromethylphenylacetylamino)pyrazole]", "melting point": "282.1 to 288.4"}, {"smiles": "Cn1nc(-c2ccc(Cl)c(Cl)c2)c(-c2ccncc2)c1NC(=O)Cc1ccc(F)cc1Cl", "note": "[Example 115, 5-(2-Chloro-4-fluorophenylacetylamino)-3-(3,4-dichlorophenyl)-1-methyl-4-(4-pyridyl)pyrazole]", "melting point": "279.3 to 280.1"}, {"smiles": "CN(C(=O)Cc1ccccc1)c1c(-c2ccncc2)c(-c2ccc(F)cc2)nn1C", "note": "[Example 120, 3-(4-Fluorophenyl)-1-methyl-5-(N-methyl-N-phenylacetylamino)-4-(4-pyridyl)pyrazole]", "melting point": "168.5 to 171.2"}, {"smiles": "Cn1nc(-c2ccc(F)cc2)c(-c2ccncc2)c1NC(=O)Cc1ccccc1C(F)(F)F", "note": "[Example 68, 3-(4-Fluorophenyl)-1-methyl-4-(4-pyridyl)-5-(2-trifluoromethylphenylacetylamino)pyrazole]", "melting point": "242.7 to 244.5"}, {"smiles": "Cn1nc(-c2ccc(F)c(Cl)c2)c(-c2ccncc2)c1NC(=O)Cc1ccc(F)cc1Cl", "note": "[Example 112, 3-(3-Chloro-4-fluorophenyl)-5-(2-chloro-4-fluorophenylacetylamino)-1-methyl-4-(4-pyridyl)pyrazole]", "melting point": "162.8 to 163.9"}, {"smiles": "C[C@H](NC(=O)OC(C)(C)C)C(=O)Nc1n[nH]c(-c2ccc(F)cc2)c1-c1ccncc1", "note": "[Example 86, 3-(N′-Carbo-t-butoxy-L-alanylamino)-5-(4-fluorophenyl)-4-(4-pyridyl)pyrazole]", "melting point": "223 to 224.7"}, {"smiles": "CCn1nc(-c2ccc(F)cc2)c(-c2ccncc2)c1NC(=O)Cc1ccccc1Cl", "note": "[Example 98, 5-(2-Chlorophenylacetylamino)-1-ethyl-3-(4-fluorophenyl)-4-(4-pyridyl)pyrazole]", "melting point": "226 to 232.3"}, {"smiles": "Cn1nc(-c2ccc(F)cc2)c(-c2ccncc2)c1NC(=O)Cc1cccc(Br)c1", "note": "[Example 58, 5-(3-Bromophenylacetylamino)-3-(4-fluorophenyl)-1-methyl-4-(4-pyridyl)pyrazole]", "melting point": "78.5 to 80.2"}, {"smiles": "CCCn1nc(-c2ccc(F)cc2)c(-c2ccncc2)c1N(C)C(=O)Cc1ccccc1", "note": "[Example 128, 3-(4-Fluorophenyl)-5-(N-methyl-N-phenylacetylamino)-1-propyl-4-(4-pyridyl)pyrazole]", "melting point": "124.5 to 127.3"}, {"smiles": "CCn1nc(-c2ccc(F)cc2)c(-c2ccncc2)c1NC(=O)Cc1ccccn1", "note": "[Example 100, 1-Ethyl-3-(4-fluorophenyl)-4-(4-pyridyl)-5-(2-pyridylacetylamino)pyrazole]", "melting point": "147.5 to 149.5"}, {"smiles": "Cn1nc(-c2ccc(F)cc2)c(-c2ccncc2)c1NC(=O)Cc1ccccc1[N+](=O)[O-]", "note": "[Example 65, 3-(4-Fluorophenyl)-1-methyl-5-(2-nitrophenylacetylamino)-4-(4-pyridyl)pyrazole]", "melting point": "240.9 to 242.4"}, {"smiles": "Cn1nc(-c2ccc(F)cc2)c(-c2ccncc2)c1NC(=O)Cc1ccncc1", "note": "[Example 78, 3-(4-Fluorophenyl)-1-methyl-4-(4-pyridyl)-5-(4-pyridylacetylamino)pyrazole]", "melting point": "141.3 to 143.4"}, {"smiles": "Cn1nc(-c2ccc(F)cc2)c(-c2ccncc2)c1NC(=O)Nc1ccccc1", "note": "[Example 136, 3-(4-fluorophenyl)-1-methyl-5-(phenylaminocarbonylamino)-4-(4-pyridyl)pyrazole]", "melting point": "287.5 to 290.2"}, {"smiles": "O=C(CC1CCCCC1)Nc1n[nH]c(-c2ccc(F)cc2)c1-c1ccncc1", "note": "[Example 23, 3-cyclohexylacetylamino-5-(4-fluorophenyl)-4-(4-pyridyl)pyrazole]", "melting point": "296.3 to 299.9"}, {"smiles": "COc1ccc(CC(=O)Nc2c(-c3ccncc3)c(-c3ccc(F)cc3)nn2C)cc1", "note": "[Example 64, 3-(4-Fluorophenyl)-5-(4-methoxyphenylacetylamino)-1-methyl-4-(4-pyridyl)pyrazole]", "melting point": "172.3 to 176"}, {"smiles": "Cn1nc(-c2ccc(F)cc2)c(-c2ccncc2)c1NC(=O)Cc1cc(F)ccc1F", "note": "[Example 35, 5-(2,5-difluorophenylacetylamino)-3-(4-fluorophenyl)-1-methyl-4-(4-pyridyl)pyrazole]", "melting point": "207 to 208"}, {"smiles": "CCCn1nc(-c2ccc(F)cc2)c(-c2ccncc2)c1NC(=O)Cc1ccccc1", "note": "[Example 99, 3-(4-Fluorophenyl)-5-phenylacetylamino-1-propyl-4-(4-pyridyl)pyrazole]", "melting point": "176.5 to 178.5"}]}]}
